Experimental data published in patent publication US9198925B2, “Pharmaceutical formulations containing an SGLT2 inhibitor” (AstraZeneca AB, priority 2007, dated 2015).
Read-outs that look alike come from different tables or passages of the source.

Legend:
healthy subjects [1] = details: single ascending dose study, cited from earlier work
[2] = test system: treatment naive type II diabetes mellitus patients; test: 12-week study of weight loss and glucosuria in patients with type II diabetes; assay type: in vivo, human; details: for Mean reduction in BMI: absolute change
Protocol: Treatment naive type II diabetes mellitus patients, n=389, with inadequate blood glycemic control and low mean glucosuria at baseline were given once-daily oral treatments with dapagliflozin propylene glycol hydrate (2.5, 5, 10, 20, or 50 mgs), metformin XR® (750 mg titrated to 1500 mgs), or placebo over 12-weeks.

healthy subjects [3] = details: single ascending dose study
Protocol: (§1) Patients with type 2 diabetes were treated with placebo, 5 mg dapagliflozin propylene glycol hydrate, 25 mg dapagliflozin propylene glycol hydrate, or 100 mg dapagliflozin propylene glycol hydrate.

[4] = test system: subjects with type 2 diabetes; details: 14-day multiple dose
Protocol: as §1

[5] = test system: diet-induced obese (DIO) rats; details: oral 1, 5 or 10 mg/kg, urine volume x glucose concentration
Protocol: Obesity was induced in male Sprague-Dawley rats (mean baseline weight=220 g) via ad libitum access to 2 diets: normal diet (Harlan Teklad rat chow; 3.5 kcal/gm, 5% vegetable fat) and high-sucrose/high-fat diet (Research Diets D12327; 4.6 kcal/gm, 40% sucrose and 40% vegetable fat).
Urine volume and glucose concentration were used to determine total urine glucose loss over 24 hours post dose.
Total glucose lost was calculated as volume of urine x glucose concentration.

[6] = test system: diet-induced obese (DIO) rats
Description: Obesity was induced in male Sprague-Dawley rats (mean baseline weight=220 g) via ad libitum access to 2 diets: normal diet (Harlan Teklad rat chow; 3.5 kcal/gm, 5% vegetable fat) and high-sucrose/high-fat diet (Research Diets D12327; 4.6 kcal/gm, 40% sucrose and 40% vegetable fat). Rats under these conditions typically consume approximately 30 g/day of the high-sucrose/high-fat chow and 2 g/day of the normal Harlan Teklad rat chow.
DIO rats were sorted into treatment groups based on body weight, total kilocalories consumed, and body composition (via echo MRI). […] Body weight and the weight of both diets were determined daily. Respiratory quotient data were obtained on days 2 and 15 of the study, echo MRI was obtained on day 22, and blood was collected for a fasting clinical chemistry tests on day 27.
Percent weight changes were calculated as daily weight—day 0 weight×100.

[7] = metformin XR 750 mg titrated to 1500 mgs, 12 weeks, n = 56
[8] = 2.5 mgs once daily, 12 weeks, n = 59
[9] = 5 mgs once daily, 12 weeks, n = 58
[10] = 10 mgs once daily, 12 weeks, n = 47
[11] = 20 mgs once daily, 12 weeks, n = 59
[12] = 50 mgs once daily, 12 weeks, n = 56

CCOC(=O)OC[C@H]1O[C@@H](Oc2ccccc2Cc2ccc(OC)cc2)[C@H](O)[C@@H](O)[C@@H]1O [GSK 869,682]
amount of glucose excretion/day (healthy subjects [1]; 50 mg): approximately 5 g
amount of glucose excretion/day (healthy subjects [1]; 100 mg): ~6 g
amount of glucose excretion/day (healthy subjects [1]; 200 mg): ~12 g
amount of glucose excretion/day (healthy subjects [1]; 500 mg): ~16 g

CN(C)C(=N)N=C(N)N [Metformin, metformin, reference compound]
Mean reduction in BMI [2, 7]: −0.5
Mean reduction in weight (%) [2, 7]: −1.7%
mean glucosuria at week 12 ([2]; type II diabetes patients, metformin XR 750 mg titrated to 1500 mgs, week 12): 5.6 grams/day

CCOc1ccc(Cc2cc([C@@H]3O[C@H](CO)[C@@H](O)[C@H](O)[C@H]3O)ccc2Cl)cc1.C[C@H](O)CO.O [dapagliflozin propylene glycol hydrate]
amount of glucose excretion/day (healthy subjects [3]; 5 mg): approximately 30 g
amount of glucose excretion/day (healthy subjects [3]; 20 mg): ~55 g
amount of glucose excretion/day (healthy subjects [3]; 50 mg): ~60 g
amount of glucose excretion/day (healthy subjects [3]; 100 mg): ~70 g
24-hour urine glucose excretion compared to placebo ([4]; 5 mg): significantly higher
24-hour urine glucose excretion compared to placebo ([4]; 25 mg): significantly higher
24-hour urine glucose excretion compared to placebo ([4]; 100 mg): significantly higher
Mean reduction in weight (%) [2, 8]: −2.7%
Mean reduction in weight (%) [2, 9]: −2.5%
Mean reduction in weight (%) [2, 10]: −2.7%
Mean reduction in weight (%) [2, 11]: −3.4%
Mean reduction in weight (%) [2, 12]: −3.4%
Mean reduction in BMI [2, 8]: −0.9
Mean reduction in BMI [2, 9]: −0.8
Mean reduction in BMI [2, 10]: −0.8
Mean reduction in BMI [2, 11]: −1.0
Mean reduction in BMI [2, 12]: −1.1
proportion of patients who achieved a 5% weight reduction, versus placebo ([2]; each dose group (2.5, 5, 10, 20, 50 mgs), 12 weeks): higher proportion
total amount of glucose lost in urine over 24 hours post dose [5]: significantly increased with increasing doses
body weight loss versus vehicle ([6]; oral 0.5, 1 or 5 mpk, administered daily over 25 days, p<0.05 versus vehicle): significant weight loss
body weight loss when compound-induced overeating was prevented (pair fed to vehicle group) ([6]; pair fed subgroup, compared with ad libitum treated rats): the weight loss was greater
